The source of these data is publication PMC3762585 (Chemical & pharmaceutical bulletin, 2012).

Where two headings read alike, the source gives them in different places.

The subject of data set [1] is SKMEL-28. Nature of the data set: MTS viability. The conditions noted are these: Homo sapiens, SK-MEL-28, read-out: Cytotoxicity IC50 SKMEL-28.
Data set [2] concerns JMAR. The data set can be described thus: MTS viability. The settings on record: Homo sapiens, read-out: Cytotoxicity IC50 JMAR.
Data set [3] relates to MDA-1986. Nature of the data set: MTS viability. The settings on record: Homo sapiens, MDA1986, read-out: Cytotoxicity IC50 MDA-1986.
Data set [4] relates to B16F10. The data set can be described thus: MTS viability. The settings on record: Mus musculus, B16-F10, read-out: Cytotoxicity IC50 B16F10.
Data set [5] deals with JMAR, MDA-1986, B16F10, SKMEL-28 and MRC-5 cells. Nature of the data set: MTS viability. It counts as cell-based. The settings on record: for anti-proliferative activity (cytotoxic effect): tested with a concentration of 20 μM, all five cell lines; for IC50: read-out: IC50 values, range over the cells tested.
The next data set can be described thus: in vitro. The settings on record: human.
Data set [6] concerns SKMEL-28.
Data set [7] deals with MDA-1986.
In data set [8] the test system is B16F10.
For data set [9], the system named is JMAR.

As to `CC1=C(CO)C(=O)O[C@@H]([C@@H](C)[C@H]2CC[C@H]3[C@@H]4C[C@H]5O[C@]56[C@@H](O)[C@@H](O)CC(=O)[C@]6(C)[C@H]4CC[C@]23C)C1` [viscosalactone B 3, viscosalactone B], the IC50 in the data set with SKMEL-28 [1], with JMAR [2], in the data set with MDA-1986 [3], in the data set on B16F10 [4] and in “in vitro” was more than 20000 nM in each case. In addition, in data set [5], the “anti-proliferative activity (cytotoxic effect)” value was “inactive”.
As to `CC1=C(C)C(=O)O[C@@H]([C@@H](C)[C@H]2CC[C@H]3[C@@H]4C[C@H]5O[C@]56[C@@H](O)C=CC(=O)[C@]6(CO)[C@H]4CC[C@]23C)C1` [Withalongolide B 5, withalongolide B], the IC50 in the data set with SKMEL-28 [1] is 3300 ± 480 nM; in the data set with JMAR [2], 250 ± 140 nM; in the data set with MDA-1986 [3] it was 1700 ± 80 nM; in the data set with B16F10 [4], 260 ± 70 nM; in data set [5], 150 to 12700 nM; in “in vitro”, 380 ± 30 nM.
As to “Withalongolide O 4,7-Diacetate [Withalongolide O 4,7-diacetate 1a]”, the IC50 in the data set on SKMEL-28 [6] worked out at 180 ± 30 nM; with MDA-1986 [7] it was 540 ± 70 nM; in the data set on B16F10 [8] it was 690 ± 140 nM; in the data set with JMAR [9], 830 ± 140 nM; in the data set on MRC-5, 530 ± 120 nM.
In the case of `CC1=C(CO)C(=O)O[C@@H]([C@@H](C)[C@H]2CC[C@H]3[C@@H]4C[C@H]5O[C@]56[C@@H](O)C=CC(=O)[C@]6(C)[C@H]4CC[C@]23C)C1` [Withaferin A 6, withaferin A], the IC50 in the data set with SKMEL-28 [1] was 3500 ± 150 nM; in the data set with MDA-1986 [3], 860 ± 250 nM; with B16F10 [4], 270 ± 40 nM; in data set [5], 150 to 12700 nM; in the data set “in vitro”, 320 ± 60 nM.
Take “19-hydroxy viscosalactone B [Withalongolide P 2]”: the “anti-proliferative activity (cytotoxic effect)” value in data set [5] is “inactive”.
